Reference: US4774232A, “Bile-substituting method of treatment for the promotion of fat digestion” (Chinoin Gyogyszer Es Vegyeszeti Termak Ek Gyara Rt, priority 1985, dated 1988)

Key:
bile-deficient rats = test: Absorption of 3H-stearic acid with oral DIMEB in bile-deficient rats (Example 10); type: in vivo; settings: for Radioactivity in 10 ml of blood: 14.7 mg 3H-stearic acid + 50 mg DIMEB oral
Protocol: The substitution of the bile by DIMEB in bile-deficiency was studied in rats after ligating the bile duct.
After being starved for 24 hours, the animals were subjected to the bile duct-ligation under nembutal anaesthesia. The absorption was investigated in the 48th hour after starving the animals overnight. The animals were also starved in the course of the examination; but received water ad libitum. One group (3 animals) received 12.8 mg of ^3 H-stearic acid (specific radioactivity: 171.12 kBq/mg), whereas the other group (3 animals) was administered 14.7 mg of ^3 H-stearic acid and 50 mg of DIMEB in 2 ml of distilled water. The substances were suspended in the distilled water ultrasonically. Thereafter, the radioactivity level of the blood was measured at various intervals, by using the liquid scintillation method (Table XI).

lipase = test: In vitro enzymatic hydrolysis of triglycerides: glycerol trioleate, lipase; type: biochemical; settings: 37° C.
Protocol: In an aqueous medium, lipase is capable to split triglycerides only at an extraordinarily low rate. Therefore, an organic solvent should be added to the system, by which the solubility of the triglycerides is increased, but the enzyme activity is diminished. Alternatively, some type of detergent, suitably bile has to be used. The effect of bile was compared to that of DIMEB at 37° C. in such a way that, the quantity of the formed free fatty acids in the samples taken from the reaction mixture at various intervals was titrated by using sodium hydroxide solution. The composition of the reaction mixture was as follows:
a total volume of 1.5 ml contained 4 μmoles of the substrate (triolein or olive oil), 10 mg of bovine serum albumin, 75 μmoles of sodium chloride, 50 μmoles of a phosphate buffer solution (pH 7.4) and 0.25 ml of an enzyme solution. A lipase of the Serva Company (in an 1 mg/10 ml solution) or a pancreas powder (0.5 g was suspended in 10 ml of distilled water and the slightly opalescent solution obtained after filtration was used) were employed as enzyme preparations.
The composition of the solutions to be tested were as follows:
0.5 ml of buffer+10 mg of serum albumin+3.54 mg of substrate+0.25 ml of enzyme solution plus
(a) 0.25 ml of diluted bile+0.50 ml of distilled water; or
(b) 50 mg of dimethyl-β-cyclodextrin dissolved in 0.75 ml of water; or […]

Water solubility = type: physicochemical
[1] = test system: bile duct-ligated rabbits; test: Substitution of the bile in bile duct-ligated rabbits (plasma triglyceride); type: in vivo, rabbits (Orychtolagus cuniculus); settings: for Plasma triglyceride concentration: rabbits after bile duct ligature
Protocol: The triglyceride concentration of the plasma was determined by using the method of E. Van Handel [Clin. Chem.. 7, 249 (1961)], whereas the concentration of the free fatty acids was measured according to W. G. Dumcombe [Biochem. J. 88, 7 (1963)].
The experimental animals were prevented in using their own bile for digestion of lipids by ligating their bile duct. Triglyceride concentration of the blood plasma was investigated after oral administration of lipids under normal pancreas secretion.
The experimental rabbits (Orychtolagus cuniculus) were kept at a standard food fo 10 days before the experiment. The organic material composition of the animal food was as follows:
The energy content of 100 g of the food amounted to […]. The animals were starved for 12 to 24 hours before the surgical operations but received water ad libitum. Within the same experimental series, rabbits of the same sex with a body weight of 2500 to 3000 g were used and the surgical operations were concurrently carried out. Pseudo-operated animals were used as controls. The operated experimental animals were used for the investigations after 48 hours. The test substances were orally administered to the animals through a gastric tube. The blood samples were taken from the auricular marginal vene.
In the first series of experiments, the first group of animals were given 3 ml of sunflower oil, the second group of animals were given 3 ml of sunflower oil and 200 mg of DIMEB dissolved in 3 ml of water. The control (speudo-operated) animals received 6 ml of water.
It is known that the digestion of the fats is a slower process than that of the oils. Thus, in the second series of experiments, the changes of the plasma triglyceride concentration of bile duct-ligated rabbits were followed after the oral administration of 5 ml of swine fat and 5 ml of swine fat together with 300 mg of DIMEB, respectively. The control group was given 5 ml of water (Table V). The quantity of the triglycerides was increased by about 100 percent as compared to the other two groups within one hour following the treatment. This tendency permanently remained during the experimental period lasting 6 hours.

[2] = Absorption and elimination of DIMEB in animal experiments; type: in vivo

For `COC[C@H]1O[C@@H]2O[C@H]3[C@H](O)[C@@H](OC)[C@@H](O[C@H]4[C@H](O)[C@@H](OC)[C@@H](O[C@H]5[C@H](O)[C@@H](OC)[C@@H](O[C@H]6[C@H](O)[C@@H](OC)[C@@H](O[C@H]7[C@H](O)[C@@H](OC)[C@@H](O[C@H]8[C@H](O)[C@@H](OC)[C@@H](O[C@H]1[C@H](O)[C@H]2OC)O[C@@H]8COC)O[C@@H]7COC)O[C@@H]6COC)O[C@@H]5COC)O[C@@H]4COC)O[C@@H]3COC` [DIMEB, heptakis(2,6-di-O-methyl)-β-cyclodextrin], the “Radioactivity in 10 ml of blood” value (bile-deficient rats; 1 h, animal 4) was 0.86 percentage, the “Radioactivity in 10 ml of blood” value (bile-deficient rats; 1 h, animal 5) was 3.45 percentage and the “Radioactivity in 10 ml of blood” value (bile-deficient rats; 1 h, animal 6) was 1.61 percentage. For the same compound, the “Radioactivity in 10 ml of blood” value (bile-deficient rats; 1 h, mean) was 1.97 percentage, the “Radioactivity in 10 ml of blood” value (bile-deficient rats; 2 h, animal 4) was 1.05 percentage and the “Radioactivity in 10 ml of blood” value (bile-deficient rats; 2 h, animal 5) was 3.25 percentage. For the same compound, the “Radioactivity in 10 ml of blood” value (bile-deficient rats; 2 h, animal 6) was 2.56 percentage, the “Radioactivity in 10 ml of blood” value (bile-deficient rats; 2 h, mean) was 2.29 percentage and the “Radioactivity in 10 ml of blood” value (bile-deficient rats; 3 h, animal 4) was 1.14 percentage. For the same compound, the “Radioactivity in 10 ml of blood” value (bile-deficient rats; 3 h, animal 5) was 3.22 percentage, the “Radioactivity in 10 ml of blood” value (bile-deficient rats; 3 h, animal 6) was 2.39 percentage and the “Radioactivity in 10 ml of blood” value (bile-deficient rats; 3 h, mean) was 2.25 percentage. For the same compound, the “Radioactivity in 10 ml of blood” value (bile-deficient rats; 4 h, animal 4) was 1.19 percentage, the “Radioactivity in 10 ml of blood” value (bile-deficient rats; 4 h, animal 5) was 3.06 percentage and the “Radioactivity in 10 ml of blood” value (bile-deficient rats; 4 h, animal 6) was 2.28 percentage. For the same compound, the “Radioactivity in 10 ml of blood” value (bile-deficient rats; 4 h, mean) was 2.18 percentage, the “Radioactivity in 10 ml of blood” value (bile-deficient rats; 5 h, animal 4) was 1.24 percentage and the “Radioactivity in 10 ml of blood” value (bile-deficient rats; 5 h, animal 5) was 3.08 percentage. The “Radioactivity in 10 ml of blood” value (bile-deficient rats; 5 h, animal 6) was 2.27 percentage, the “Radioactivity in 10 ml of blood” value (bile-deficient rats; 5 h, mean) was 2.20 percentage and the “Radioactivity in 10 ml of blood” value (bile-deficient rats; 6 h, animal 4) was 1.25 percentage. The “Radioactivity in 10 ml of blood” value (bile-deficient rats; 6 h, animal 5) was 2.91 percentage, the “Radioactivity in 10 ml of blood” value (bile-deficient rats; 6 h, animal 6) was 2.56 percentage and the “Radioactivity in 10 ml of blood” value (bile-deficient rats; 6 h, mean) was 2.24 percentage. For the same compound, the “Radioactivity in 10 ml of blood” value (bile-deficient rats; 7 h, animal 4) was 1.33 percentage, the “Radioactivity in 10 ml of blood” value (bile-deficient rats; 7 h, animal 5) was 3.03 percentage and the “Radioactivity in 10 ml of blood” value (bile-deficient rats; 7 h, animal 6) was 2.67 percentage. For the same compound, the “Radioactivity in 10 ml of blood” value (bile-deficient rats; 7 h, mean) was 2.34 percentage, the “Radioactivity in 10 ml of blood” value (bile-deficient rats; 8 h, animal 4) was 1.37 percentage and the “Radioactivity in 10 ml of blood” value (bile-deficient rats; 8 h, animal 5) was 3.13 percentage. The “Radioactivity in 10 ml of blood” value (bile-deficient rats; 8 h, animal 6) was 2.58 percentage, the “Radioactivity in 10 ml of blood” value (bile-deficient rats; 8 h, mean) was 2.36 percentage and the “Radioactivity in 10 ml of blood” value (bile-deficient rats; 10 h, animal 4) was 1.29 percentage. The “Radioactivity in 10 ml of blood” value (bile-deficient rats; 10 h, animal 5) was 3.26 percentage, the “Radioactivity in 10 ml of blood” value (bile-deficient rats; 10 h, animal 6) was 2.67 percentage and the “Radioactivity in 10 ml of blood” value (bile-deficient rats; 10 h, mean) was 2.41 percentage. For the same compound, the “Radioactivity in 10 ml of blood” value (bile-deficient rats; 24 h, animal 4) was 1.60 percentage, the “Radioactivity in 10 ml of blood” value (bile-deficient rats; 24 h, animal 5) was 4.56 percentage and the “Radioactivity in 10 ml of blood” value (bile-deficient rats; 24 h, animal 6) was 4.00 percentage. For the same compound, the “Radioactivity in 10 ml of blood” value (bile-deficient rats; 24 h, mean) was 3.39 percentage, the “Blood level relative to animals treated with stearic acid only” value (bile-deficient rats; 24th hour) was 1.4 times and the “0.005 N NaOH consumed” value (lipase; series Bile II, glycerol trioleate, reaction time 1 hour) was 0.34 mL. The “0.005 N NaOH consumed” value (lipase; series Bile II, glycerol trioleate, reaction time 2 hour) was 0.80 mL, the “0.005 N NaOH consumed” value (lipase; series Bile II, glycerol trioleate, reaction time 3 hour) was 1.16 mL and the “0.005 N NaOH consumed” value (lipase; series Bile II, glycerol trioleate, reaction time 21 hour) was 1.86 mL. The “0.005 N NaOH consumed” value (lipase; series Bile III, glycerol triolate, reaction time 1 hour) was 0.28 mL, the “0.005 N NaOH consumed” value (lipase; series Bile III, glycerol triolate, reaction time 2 hour) was 0.68 mL and the “0.005 N NaOH consumed” value (lipase; series Bile III, glycerol triolate, reaction time 4 hour) was 1.20 mL. The Water solubility (Water solubility) was “very high water solubility”, the “Plasma triglyceride concentration compared with the group treated with oil alone” value ([1]; bile duct-ligated rabbits, 3 ml sunflower oil + 200 mg DIMEB, 6th hour) was “nearly three-fold” and the “Increase of the quantity of plasma triglycerides compared to the other two groups” value ([1]; bile duct-ligated rabbits, 5 ml swine fat + 300 mg DIMEB, within one hour following the treatment) was “about 100%”. It also gave a Plasma triglyceride concentration ([1]; 3 ml sunflower oil + 200 mg DIMEB oral, Hour 0) of 52 ± 19 mg/100 ml, a Plasma triglyceride concentration ([1]; 3 ml sunflower oil + 200 mg DIMEB oral, Hour 1) of 96 ± 32 mg/100 ml and a Plasma triglyceride concentration ([1]; 3 ml sunflower oil + 200 mg DIMEB oral, Hour 2.5) of 87 ± 30 mg/100 ml. The Plasma triglyceride concentration ([1]; 3 ml sunflower oil + 200 mg DIMEB oral, Hour 4) was 61 ± 14 mg/100 ml, the Plasma triglyceride concentration ([1]; 3 ml sunflower oil + 200 mg DIMEB oral, Hour 6) was 125 ± 3 mg/100 ml and the Plasma triglyceride concentration ([1]; 5 ml swine fat + 300 mg DIMEB oral, Hour 0) was 58 ± 19 mg/100 ml. It also gave a Plasma triglyceride concentration ([1]; 5 ml swine fat + 300 mg DIMEB oral, Hour 1) of 104 ± 30 mg/100 ml, a Plasma triglyceride concentration ([1]; 5 ml swine fat + 300 mg DIMEB oral, Hour 2.5) of 92 ± 26 mg/100 ml and a Plasma triglyceride concentration ([1]; 5 ml swine fat + 300 mg DIMEB oral, Hour 4) of 83 ± 25 mg/100 ml. The Plasma triglyceride concentration ([1]; 5 ml swine fat + 300 mg DIMEB oral, Hour 6) was 125 ± 3 mg/100 ml, the “Time to complete elimination through the kidneys” value ([2]; after intravenous administration) was no more than 6 h and the “Absorption after oral administration” value ([2]; animal experiments, oral) was “not absorbed”.
